“And” between values parts separate entries of the source, which are not always exact repeats. Equal entries are not always repeated. Where two headings read alike, the source gives them in different places.
What was measured:
rat liver [1] = details: for Pathological observations in liver: model false positive
Description: (§1) After 3-day treatment, rat liver samples were collected for RNA extraction and histo-pathology examination. Sera from the same rats were subjected to clinical chemistry monitoring.

rat liver [2] = test: Serum clinical chemistry: cholesterol (Chol) after 3-day treatment
Description: as §1
(§2) Liver injury was identified by the individual clinical chemistry measurement if its level was outside +/− two standard deviations of the averaged level of normal animals.

rat liver [3] = test: Serum clinical chemistry: alkaline phosphatase (ALP) after 3-day treatment
Description: as §1, §2

rat liver [4] = test: Serum clinical chemistry: aspartate aminotransferase (AST) after 3-day treatment
Description: as §1, §2

rat liver [5] = test: Serum clinical chemistry: total bilirubin (Tbil) after 3-day treatment
Description: as §1, §2

rat liver [6] = test: Serum clinical chemistry: alanine aminotransferase (ALT) after 3-day treatment
Description: as §1, §2

rat liver [7] = details: in vivo, 150 mg/kg/day
rat liver [8] = test: Hepatotoxicity score (HS) combined from five clinical chemistry measurements, threshold -0.25; details: 3-day treatment
[9] = rat serum, dose 500 mg/kg/day, individual rats
[10] = SD rats, 10 mg/kg/day, 3-day treatment, the other two of three treated rats
[11] = rat serum, dose 50 mg/kg/day, individual rats
[12] = rat serum, dose 1 mg/kg/day, individual rats
[13] = rat serum, dose 320 mg/kg/day, individual rats
[14] = rat serum, dose 45 mg/kg/day, individual rats
[15] = rat serum, dose 450 mg/kg/day, individual rats
[16] = rat serum, dose 160 mg/kg, individual rats
[17] = rat serum, dose 1600 mg/kg, individual rats
[18] = rat serum, dose .001 mg/kg/day, individual rats
[19] = rat serum, dose 100 mg/kg, individual rats
[20] = rat serum, dose 1000 mg/kg, individual rats

## CCSCC[C@H](N)C(=O)O [L-ethionine]
Rat liver [1]; 50 mg/kg/day treated group, 3-day treatment
  Pathological observations in liver: noticeable pathological changes

## CC1=C(/C=C/C(C)=C/C=C/C(C)=C/CO)C(C)(C)CCC1 [Retinol]
Rat liver [2]; [9]
  Chol.: 67.000 and 50.000 and 47.000
Rat liver [3]; [9]
  ALP: 259.000 and 241.000 and 348.000
Rat liver [4]; [9]
  AST: 88.000 and 157.000 and 112.000
Rat liver [5]; [9]
  TBil: 0.200
Rat liver [6]; [9]
  ALT: 27.000 and 31.000 and 37.000

## CC(=O)Oc1ccccc1C(=O)O [aspirin]
Rat liver [7]
  Liver damage call by hepatotoxicity score versus individual clinical chemistry measures: positives detected by the hepatotoxicity score
Rat liver [1]; rat, in vivo, 150 mg/kg/day
  Histopathology examination of liver: Cellular abnormality

## CN1C(=O)CN=C(c2ccccc2)c2cc(Cl)ccc21 [diazepam]
Rat liver [5]; rat, in vivo
  TBil: 0.100

## CCN(CC)N=O [diethylnitrosamine]
Rat liver [1]; 100 mg/kg/day treated group, 3-day treatment
  Pathological observations in liver: noticeable pathological changes

## CN(C)C=O [dimethlformamide]
Rat liver [1]; 1000 mg/kg/day treated group, 3-day treatment
  Pathological observations in liver: noticeable pathological changes

## C[C@]12CC[C@@H]3c4ccc(O)cc4CC[C@H]3[C@@H]1CC[C@@H]2O[C@@H]1O[C@H](C(=O)O)[C@@H](O)[C@H](O)[C@H]1O [estradiol glucuronide]
Rat liver [8]; SD rat, high dose 10 mg/kg/day
  Liver damage call by hepatotoxicity score versus individual clinical chemistry measures: positives detected by the hepatotoxicity score
Rat liver [3]; [10]
  Liver injury by ALP: showed liver injury
Rat liver [1]; SD rats, 10 mg/kg/day treatment group, 3-day treatment
  Histopathology examination of liver: Cellular abnormality
Rat liver [6]; [10]
  Liver injury by ALT: showed liver injury

## CN(C)C(=N)N=C(N)N [metformin]
Rat liver [8]; one SD rat, 900 mg/kg/day
  Liver damage call by hepatotoxicity score versus individual clinical chemistry measures: false negatives
Rat liver [1]; rat, in vivo, 900 mg/kg/day
  Histopathology examination of liver: no observable liver abnormality

## C[C@H]1C(=O)O[C@@H]2CCN3CC=C(COC(=O)[C@](C)(O)[C@]1(C)O)[C@H]23 [monocrotaline, reference compound]
Rat liver [2]; [11]
  Chol.: 54.000 and 61.000 and 69.000
Rat liver [8]; one SD rat, high dose 50 mg/kg/day
  Liver damage call by hepatotoxicity score versus individual clinical chemistry measures: false negatives
Rat liver [3]; [11]
  ALP: 194.000 and 211.000 and 298.000
Rat liver [4]; [11]
  AST: 123.000 and 135.000 and 270.000
Rat liver [5]; [11]
  TBil: 0.200 (2×) and 1.500
Rat liver [1]; SD rat, 50 mg/kg/day, 3-day treatment, HS false negative sample
  Histopathology examination of liver: no observable liver abnormality
Rat liver [6]; [11]
  ALT: 44.000 and 64.000 and 610.000

## CC[C@H]1/C=C/C=C/C[C@@H](C)[C@H](O)[C@@](C)(O)C(=O)[C@@H](C)[C@H](O)[C@@H](C)C(=O)[C@@H](C)[C@H](O)[C@@H](C)/C=C/C(=O)O[C@@H]2[C@H](C)[C@H](CC1)O[C@]1(CC[C@H](C)[C@H](C[C@@H](C)O)O1)[C@H]2C [oligomycin]
Rat liver [2]; [12]
  Chol.: 47.000 and 72.000 and 59.000
Rat liver [3]; [12]
  ALP: 361.000 and 289.000 and 397.000
Rat liver [4]; [12]
  AST: 72.000 (2×) and 75.000
Rat liver [5]; [12]
  TBil: 0.200
Rat liver [6]; [12]
  ALT: 44.000 and 46.000 and 58.000

## C1CCC(C(CC2CCCCN2)C2CCCCC2)CC1 (centres unmarked) [perhexilene, reference compound]
Rat liver [2]; [13]
  Chol.: 45.000 and 44.000 and 66.000
Rat liver [3]; [13]
  ALP: 248.000 and 340.000 and 245.000
Rat liver [4]; [13]
  AST: 103.000 and 116.000 and 98.000
Rat liver [5]; [13]
  TBil: 0.100
Rat liver [6]; [13]
  ALT: 51.000 and 129.000 and 31.000

## O=C1NC(=O)C(c2ccccc2)(c2ccccc2)N1 [phenytoin]
Rat liver [2]; [14]
  Chol.: 77.000 and 71.000
Rat liver [2]; [15]
  Chol.: 61.000 and 73.000 and 66.000
Rat liver [3]; [14]
  ALP: 199.000 and 214.000
Rat liver [3]; [15]
  ALP: 255.000 and 233.000 and 312.000
Rat liver [4]; [14]
  AST: 65.000 and 81.000
Rat liver [4]; [15]
  AST: 130.000 and 71.000 and 65.000
Rat liver [5]; [14]
  TBil: 0.200
Rat liver [5]; [15]
  TBil: 0.200 and 0.100 (2×)
Rat liver [6]; [14]
  ALT: 26.000 and 19.000
Rat liver [6]; [15]
  ALT: 49.000 and 38.000 and 24.000

## CN[C@@H]1[C@H](O)[C@H](NC)[C@H]2O[C@@]3(O)C(=O)C[C@@H](C)O[C@H]3O[C@@H]2[C@H]1O [spectinomycin]
Rat liver [2]; [16]
  Chol.: 60.000 and 59.000 and 54.000
Rat liver [2]; [17]
  Chol.: 36.000 and 62.000 and 26.000
Rat liver [3]; [16]
  ALP: 174.000 and 181.000
Rat liver [3]; [17]
  ALP: 246.000 and 189.000 and 176.000
Rat liver [4]; [16]
  AST: 83.000 and 74.000 and 70.000
Rat liver [4]; [17]
  AST: 98.000 and 95.000 and 86.000
Rat liver [5]; [16]
  TBil: 0.100
Rat liver [5]; [17]
  TBil: 0.100
Rat liver [6]; [16]
  ALT: 52.000 and 36.000 and 46.000
Rat liver [6]; [17]
  ALT: 60.000 and 44.000 and 30.000

## CC/C(=C(\c1ccccc1)c1ccc(OCCN(C)C)cc1)c1ccccc1 [tamoxifen, reference compound]
Rat liver [1]; rat, in vivo, 5 mg/kg/day
  Histopathology examination of liver: no observable liver abnormality

## CC(C)(C)c1ccc(C(O)CCCN2CCC(C(O)(c3ccccc3)c3ccccc3)CC2)cc1 (centres unmarked) [terfenadine]
Rat liver [5]; rat, in vivo, 15 mg/kg
  TBil: 0.100
Rat liver [5]; rat, in vivo, 150 mg/kg
  TBil: 0.100

## Cn1c(=O)c2[nH]cnc2n(C)c1=O [theophylline]
Rat liver [5]; rat, in vivo, 75 mg/kg
  TBil: 0.100

## TNFalpha
Rat liver [2]; [18]
  Chol.: 50.000 and 60.000 (2×)
Rat liver [3]; [18]
  ALP: 728.000 and 255.000 and 312.000
Rat liver [4]; [18]
  AST: 70.000 (2×) and 59.000
Rat liver [5]; [18]
  TBil: 0.200 (2×) and 0.100
Rat liver [6]; [18]
  ALT: 53.000 and 48.000 and 55.000

## aflatoxin B
Rat liver [2]; rat, in vivo
  Chol.: 64.000 and 75.000 and 63.000
Rat liver [3]; rat, in vivo
  ALP: 297.000 and 166.000 and 217.000
Rat liver [4]; rat, in vivo
  AST: 206.000 and 132.000 and 156.000
Rat liver [5]; rat, in vivo
  TBil: 0.200
Rat liver [6]; rat, in vivo
  ALT: 81.000 and 48.000 and 59.000

## microcystin
Rat liver [2]; rat, in vivo
  Chol.: 84.000 and 67.000 and 95.000
Rat liver [3]; rat, in vivo
  ALP: 518.000 and 427.000 and 514.000
Rat liver [4]; rat, in vivo
  AST: 204.000 and 384.000 and 296.000
Rat liver [5]; rat, in vivo
  TBil: 0.600 and 0.400
Rat liver [6]; rat, in vivo
  ALT: 140.000 and 258.000 and 144.000

## penicillin
Rat liver [2]; [19]
  Chol.: 49.000 and 37.000 and 69.000
Rat liver [2]; [20]
  Chol.: 41.000 (2×) and 43.000 and 73.000
Rat liver [3]; [19]
  ALP: 290.000 and 247.000
Rat liver [3]; [20]
  ALP: 215.000 (2×) and 247.000 and 253.000
Rat liver [4]; [19]
  AST: 127.000 and 144.000
Rat liver [4]; [20]
  AST: 134.000 (2×) and 80.000 and 90.000
Rat liver [5]; [19]
  TBil: 0.100
Rat liver [5]; [20]
  TBil: 0.100
Rat liver [6]; [19]
  ALT: 51.000 and 41.000 and 44.000
Rat liver [6]; [20]
  ALT: 52.000 (2×) and 25.000 and 42.000

Source: US20050143628A1, “Methods for characterizing tissue or organ condition or status” (priority 2003, published 2005)
